The record followed here is patent US8648086B2, “5,6-bicyclic heteroaryl-containing urea compounds as kinase inhibitors” (Ascepion Pharmaceuticals, Inc., priority 2009, dated 2014).

For one assay, the target named is T1, PDGFRβ (Homo sapiens, UniProt P09619).
T1 construct: expressed in transfected cells; host or cells: CHO cells, pcDNA3.1 plasmid
Nature of the assay: PDGFRβ cell-based assay (phospho-PDGFRβ ELISA, transfected CHO cells). The note with it: compound at 100 nM, read-out: % PDGFRβ kinase activity remains. How it is done:
A standard cell-based assay for PDGFRβ kinase activity can be used to test a compound of this invention and to identify PDGFRβ antagonists.
Specifically, a compound to be tested was first dissolved in DMSO to a concentration of 10 mM and stored at −20° C. The activity of PDGFRβ in cells depends on the phosphorylation level of its intracellular domain induced by the ligand. In order to express PDGFRβ in the cell, full length PDGFRβ sequence was cloned into PC-DNA3.1 vector. The plasmid was then transfected into CHO cells. After 48 hours following the transfection, the expression of PDGFRβ in transfected CHO cells was confirmed by regular western blotting.
To screen the compound of this invention, the ELISA kit (R&D Systems, Minneapolis, Minn., USA) was used. One day before the screening, CHO cells transfected with full length PDGFRβ plasmid were grown in DMEM medium without the presence of serum. On the day of screening, various concentrations of compounds (from 0.5 nM to 500 nM) were added into DMEM medium. Two hours later, 20% of FBS (Fetal Bovine Serum) was added into the medium to stimulate the expression of phosphor-PDGFRβ. Cell lysate from approximately 5×10^5 transfected CHO cells were reacted with anti-phosphor-PDGFRβ or anti-total PDGFRβ antibody in 96 well plates, in the presence of detection antibody, the phosphor-PDGFRβ or total PDGFRβ were detected with Streptavidin-HRP (R&D Systems), followed by chemiluminescent detection.

The next assay addresses T2, c-Met (Homo sapiens, UniProt P08581).
T2 construct: endogenous in cells; host or cells: A549 cells
Nature of the assay: c-Met cell-based assay (phospho-c-Met ELISA, A549 cells). The note with it: compound at 100 nM. How it is done:
A procedure for standard cell-based assay for c-Met kinase activity can be used to test compounds of this invention for their inhibitory effect on this kinase and to identify c-Met antagonists.
Specifically, a compound to be tested was first dissolved in DMSO to a concentration of 10 mM and stored at −20° C. The activity of c-Met in cells depends on the phosphorylation level at its intracellular domain induced by its ligand, Hepatocyte growth factor (HGF). In order to induce the cells to produce phosphate c-Met, paracrine HGF-dependent NSCLC (None Small Cell Lung Cancer) A549 cells were grown in DMEM with 10% FBS.
To screen compounds of this invention for their inhibitory effect on c-Met kinase, the ELISA kit (R&D Systems) was used. One day before screening procedure, A549 cells were grown in DMEM without the presence of serum. On the day of screening procedure, various concentrations of compounds (from 0.5 nM to 500 nM) were added into the culture medium. Two hours later, 20% of FBS (Fetal Bovine Serum) was added into the medium to stimulate the expression of phosphor-c-Met. After 20 minutes, cell lysate from approximately 5×10^5 A549 cells were reacted with anti-phosphor-c-Met or anti total c-Met antibody in 96 well plates. In the presence of detection antibody, the phosphor-c-Met or total c-Met can be detected with Streptavidin-HRP (R&D Systems) followed by chemiluminescence detection.
Background: ELISA stands for enzyme-linked immunosorbent assay.

The target in another assay is T3, VEGFR2 (Homo sapiens, UniProt P35968).
T3 construct: expressed in transfected cells; host or cells: CHO cells, pcDNA3.1 plasmid
T3 sequence (P35968 20-1356, species assumed): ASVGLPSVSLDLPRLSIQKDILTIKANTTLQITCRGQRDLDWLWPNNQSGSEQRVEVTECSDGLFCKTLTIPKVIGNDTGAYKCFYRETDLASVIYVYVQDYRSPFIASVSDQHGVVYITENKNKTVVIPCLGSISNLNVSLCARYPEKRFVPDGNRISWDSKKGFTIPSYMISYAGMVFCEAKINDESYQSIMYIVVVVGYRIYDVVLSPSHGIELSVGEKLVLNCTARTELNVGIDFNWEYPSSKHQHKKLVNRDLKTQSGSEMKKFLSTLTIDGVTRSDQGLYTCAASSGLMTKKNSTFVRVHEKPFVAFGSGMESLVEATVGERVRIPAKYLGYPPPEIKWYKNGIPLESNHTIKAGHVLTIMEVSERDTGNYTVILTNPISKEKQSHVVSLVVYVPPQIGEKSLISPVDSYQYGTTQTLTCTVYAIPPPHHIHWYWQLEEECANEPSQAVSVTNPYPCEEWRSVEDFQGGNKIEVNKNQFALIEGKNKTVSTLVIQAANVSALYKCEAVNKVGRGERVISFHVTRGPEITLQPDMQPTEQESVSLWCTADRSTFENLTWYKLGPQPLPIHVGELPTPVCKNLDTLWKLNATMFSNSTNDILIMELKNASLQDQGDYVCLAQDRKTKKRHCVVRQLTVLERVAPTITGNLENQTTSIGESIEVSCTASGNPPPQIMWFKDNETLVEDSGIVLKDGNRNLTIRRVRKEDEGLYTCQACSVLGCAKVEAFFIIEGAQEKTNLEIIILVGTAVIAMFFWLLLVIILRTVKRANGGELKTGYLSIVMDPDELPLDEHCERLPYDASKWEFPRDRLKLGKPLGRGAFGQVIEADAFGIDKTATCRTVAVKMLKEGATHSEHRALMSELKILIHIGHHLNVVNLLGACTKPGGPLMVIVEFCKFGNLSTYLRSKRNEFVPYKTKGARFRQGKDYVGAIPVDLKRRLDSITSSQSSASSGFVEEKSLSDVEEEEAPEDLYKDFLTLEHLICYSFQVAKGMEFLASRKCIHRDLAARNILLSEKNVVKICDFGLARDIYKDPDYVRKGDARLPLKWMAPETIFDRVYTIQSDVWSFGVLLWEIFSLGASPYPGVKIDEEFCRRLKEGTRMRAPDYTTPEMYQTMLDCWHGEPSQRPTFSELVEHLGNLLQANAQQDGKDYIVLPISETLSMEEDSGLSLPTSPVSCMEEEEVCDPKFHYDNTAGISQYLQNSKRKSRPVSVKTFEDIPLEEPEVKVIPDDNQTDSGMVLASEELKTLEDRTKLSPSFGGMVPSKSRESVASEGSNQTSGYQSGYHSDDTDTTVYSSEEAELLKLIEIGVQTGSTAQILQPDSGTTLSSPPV
The assay is described as follows: VEGFR2 cell-based assay (phospho-VEGFR2 ELISA, transfected CHO cells). Particulars: compound at 100 nM, read-out: % VEGFR2 kinase activity remains. The procedure: A standard cell-based assay for VEGFR2 kinase activity can be used to test compounds of this invention and to identify VEGFR2 antagonists.
Specifically, a compound to be tested was first dissolved in DMSO to a concentration of 10 mM and stored at −20° C. The activity of VEGFR2 in cells depends on the phosphorylation level at its intracellular domain induced by the ligand. In order to express VEGFR2 in the cells, full length VEGFR2 sequence was cloned into PC-DNA3.1 vector, the plasmid was then transfected into CHO cells. After 48 hours, the expression of VEGFR2 in transfected CHO cells was confirmed by regular western blotting.
To screen the compounds of this invention, the ELISA kit (R&D Systems) was used. One day before the screening, CHO cells transfected with full length VEGFR2 plasmid were grown in DMEM medium without the presence of serum. On the day of screening, various concentrations of compounds (From 0.5 nM to 500 nM) were added into DMEM medium. Two hours later, 20% of FBS (Fetal Bovine Serum) was added into the medium to stimulate the production of phosphor-VEGFR2. Cell lysate from approximately 5×10^5 transfected CHO cells were reacted with anti-phosphor-VEGFR2 or anti-total VEGFR2 antibody in 96 well plates. In the presence of detection antibody, the phosphor-VEGFR2 or total VEGFR2 were detected with Streptavidin-HRP (R&D Systems) followed by chemiluminescence detection.

T1 sequence (P09619 33-1106, species assumed): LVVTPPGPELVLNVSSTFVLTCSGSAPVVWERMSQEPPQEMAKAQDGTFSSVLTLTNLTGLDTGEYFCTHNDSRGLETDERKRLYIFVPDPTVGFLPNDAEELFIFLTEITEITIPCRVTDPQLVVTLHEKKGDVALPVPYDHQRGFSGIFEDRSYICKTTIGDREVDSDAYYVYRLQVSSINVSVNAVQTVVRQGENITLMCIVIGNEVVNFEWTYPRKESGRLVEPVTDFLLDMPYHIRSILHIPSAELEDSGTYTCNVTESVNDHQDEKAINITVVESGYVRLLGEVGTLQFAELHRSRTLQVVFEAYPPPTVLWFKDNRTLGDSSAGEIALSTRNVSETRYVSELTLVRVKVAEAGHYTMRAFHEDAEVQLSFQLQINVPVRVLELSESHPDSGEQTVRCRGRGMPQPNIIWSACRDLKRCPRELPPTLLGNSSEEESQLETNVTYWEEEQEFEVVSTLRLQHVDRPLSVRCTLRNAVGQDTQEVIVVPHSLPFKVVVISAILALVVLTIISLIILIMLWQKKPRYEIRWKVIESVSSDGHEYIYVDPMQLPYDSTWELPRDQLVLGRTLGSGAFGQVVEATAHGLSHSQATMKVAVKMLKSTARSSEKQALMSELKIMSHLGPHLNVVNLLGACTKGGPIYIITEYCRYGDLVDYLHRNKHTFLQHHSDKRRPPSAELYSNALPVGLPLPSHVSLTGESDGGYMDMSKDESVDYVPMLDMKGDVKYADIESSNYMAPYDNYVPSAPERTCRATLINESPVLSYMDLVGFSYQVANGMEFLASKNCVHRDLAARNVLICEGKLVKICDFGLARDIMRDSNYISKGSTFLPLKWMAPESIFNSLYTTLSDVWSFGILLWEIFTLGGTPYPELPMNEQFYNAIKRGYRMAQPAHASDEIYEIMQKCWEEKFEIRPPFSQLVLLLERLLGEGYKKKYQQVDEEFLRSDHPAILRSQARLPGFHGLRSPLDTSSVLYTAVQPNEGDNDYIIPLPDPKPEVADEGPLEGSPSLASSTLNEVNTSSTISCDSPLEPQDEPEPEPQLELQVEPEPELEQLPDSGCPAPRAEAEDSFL
T2 sequence (P08581 25-1390): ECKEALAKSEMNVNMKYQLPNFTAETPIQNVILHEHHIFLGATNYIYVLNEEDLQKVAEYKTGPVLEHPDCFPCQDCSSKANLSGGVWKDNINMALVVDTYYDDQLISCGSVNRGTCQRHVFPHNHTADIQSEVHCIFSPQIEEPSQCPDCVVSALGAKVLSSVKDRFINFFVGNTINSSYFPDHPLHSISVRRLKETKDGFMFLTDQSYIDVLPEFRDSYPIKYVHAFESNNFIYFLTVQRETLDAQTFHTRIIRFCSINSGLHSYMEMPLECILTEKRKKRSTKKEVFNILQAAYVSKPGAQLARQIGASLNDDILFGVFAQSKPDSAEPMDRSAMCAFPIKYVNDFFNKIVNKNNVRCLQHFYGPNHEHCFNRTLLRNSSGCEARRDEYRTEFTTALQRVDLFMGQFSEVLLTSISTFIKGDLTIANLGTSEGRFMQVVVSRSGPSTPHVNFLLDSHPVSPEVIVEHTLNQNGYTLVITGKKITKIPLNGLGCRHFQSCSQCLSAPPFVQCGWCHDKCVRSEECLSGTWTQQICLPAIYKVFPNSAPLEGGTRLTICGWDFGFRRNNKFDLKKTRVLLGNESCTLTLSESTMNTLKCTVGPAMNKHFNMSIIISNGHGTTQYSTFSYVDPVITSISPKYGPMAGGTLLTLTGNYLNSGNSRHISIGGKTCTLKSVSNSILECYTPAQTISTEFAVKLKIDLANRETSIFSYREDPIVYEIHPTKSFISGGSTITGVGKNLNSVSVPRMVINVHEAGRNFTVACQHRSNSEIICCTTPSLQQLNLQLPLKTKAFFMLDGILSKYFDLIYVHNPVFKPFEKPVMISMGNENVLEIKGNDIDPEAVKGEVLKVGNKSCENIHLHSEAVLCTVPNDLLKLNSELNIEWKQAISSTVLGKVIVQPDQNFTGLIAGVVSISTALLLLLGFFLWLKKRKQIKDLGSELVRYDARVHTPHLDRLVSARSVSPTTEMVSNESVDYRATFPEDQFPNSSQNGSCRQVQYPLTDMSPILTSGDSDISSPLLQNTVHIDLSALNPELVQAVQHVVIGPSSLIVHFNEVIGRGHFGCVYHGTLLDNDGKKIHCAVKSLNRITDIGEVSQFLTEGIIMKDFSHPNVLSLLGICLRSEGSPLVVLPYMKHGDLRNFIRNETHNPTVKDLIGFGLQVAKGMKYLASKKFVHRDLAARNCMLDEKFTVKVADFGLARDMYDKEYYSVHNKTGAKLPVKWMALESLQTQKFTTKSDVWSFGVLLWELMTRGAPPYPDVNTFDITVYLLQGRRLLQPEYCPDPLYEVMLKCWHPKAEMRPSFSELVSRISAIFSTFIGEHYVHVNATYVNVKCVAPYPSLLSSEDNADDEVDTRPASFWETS

Take `Cl.O=C(Nc1cccc(OC(F)(F)F)c1)Nc1cccc2c1ccn2Cc1c[nH]c2ncccc12` [Example 21, 1-(3-Trifluoromethoxyphenyl)-3-[1-(1H-pyrrolo[2,3-b]pyridin-3-ylmethyl)-1H-indol-4-yl]urea hydrochloride]: the remaining activity at 0.1 µM at PDGFRβ and at VEGFR2 was no less than 70% each time. Moreover, at c-Met, the “% c-Met kinase activity remains” value is on record as “B (the percentage is greater or equal to 70%)”.
As to `Cl.O=C(Nc1ccc(OC(F)(F)F)cc1)Nc1cccc2c1ccn2Cc1c[nH]c2ncccc12` [Example 22, 1-(4-Trifluoromethoxyphenyl)-3-[1-(1H-pyrrolo[2,3-b]pyridin-3-ylmethyl)-1H-indol-4-yl]urea hydrochloride], the remaining activity at 0.1 µM at PDGFRβ and at VEGFR2 was no less than 70% each time. Also, the “% c-Met kinase activity remains” value at c-Met is given as “A (the percentage of kinase activity remains is below 70%)”.
Turning to `Cl.O=C(Nc1ccc(Cl)cc1F)Nc1cccc2c1ccn2Cc1c[nH]c2ncccc12` [Example 28, 1-(2-Fluoro-4-chlorophenyl)-3-[1-(1H-pyrrolo[2,3-b]pyridin-3-ylmethyl)-1H-indol-4-yl]urea hydrochloride], the remaining activity at 0.1 µM is no less than 70% at PDGFRβ and less than 70% at VEGFR2. The “% c-Met kinase activity remains” value at c-Met is listed as “A (the percentage of kinase activity remains is below 70%)”.
On the same counts, the results for `Cl.O=C(Nc1cc(Cl)ccc1F)Nc1cccc2c1ccn2Cc1c[nH]c2ncccc12` [Example 29, 1-(2-Fluoro-5-chlorophenyl)-3-[1-(1H-pyrrolo[2,3-b]pyridin-3-ylmethyl)-1H-indol-4-yl]urea hydrochloride] are no less than 70%, less than 70% and “B (the percentage is greater or equal to 70%)”.
On the same counts, the results for `Cl.O=C(Nc1cc(Br)ccc1F)Nc1cccc2c1ccn2Cc1c[nH]c2ncccc12` [Example 30, 1-(2-Fluoro-5-bromophenyl)-3-[1-(1H-pyrrolo[2,3-b]pyridin-3-ylmethyl)-1H-indol-4-yl]urea hydrochloride] are no less than 70%, less than 70% and “B (the percentage is greater or equal to 70%)”.
On the same counts, the results for `COc1ccc(OC)c(NC(=O)Nc2cccc3c2ccn3Cc2c[nH]c3ncccc23)c1.Cl` [Example 32, 1-(2,5-Dimethoxyphenyl)-3-[1-(1H-pyrrolo[2,3-b]pyridin-3-ylmethyl)-1H-indol-4-yl]urea hydrochloride] are no less than 70%, less than 70% and “A (the percentage of kinase activity remains is below 70%)”.
Regarding `Cl.O=C(Nc1cccc(F)c1)Nc1cccc2c1ccn2Cc1ccnc2[nH]ccc12` [Example 35, 1-(3-Fluorophenyl)-3-[1-(1H-pyrrolo[2,3-b]pyridin-4-ylmethyl)-1H-indol-4-yl]urea hydrochloride], the remaining activity at 0.1 µM at PDGFRβ was no less than 70%; at VEGFR2, less than 70%. Further, the “% c-Met kinase activity remains” value on c-Met is recorded as “A (the percentage of kinase activity remains is below 70%)”.
The corresponding values for `Cl.O=C(Nc1ccc(F)cc1)Nc1cccc2c1ccn2Cc1ccnc2[nH]ccc12` [Example 36, 1-(4-Fluorophenyl)-3-[1-(1H-pyrrolo[2,3-b]pyridin-4-ylmethyl)-1H-indol-4-yl]urea hydrochloride] are no less than 70%, less than 70% and “A (the percentage of kinase activity remains is below 70%)”.
The corresponding values for `COc1cccc(NC(=O)Nc2cccc3c2ccn3Cc2ccnc3[nH]ccc23)c1.Cl` [Example 47, 1-(3-Methoxyphenyl)-3-[1-(1H-pyrrolo[2,3-b]pyridin-4-ylmethyl)-1H-indol-4-yl]urea hydrochloride] are no less than 70%, less than 70% and “A (the percentage of kinase activity remains is below 70%)”.
The corresponding values for `Cl.O=C(Nc1ccc(C(F)(F)F)cc1)Nc1cccc2c1ccn2Cc1ccnc2[nH]ccc12` [Example 52, 1-(4-Trifluoromethylphenyl)-3-[1-(1H-pyrrolo[2,3-b]pyridin-4-ylmethyl)-1H-indol-4-yl]urea hydrochloride] are no less than 70%, less than 70% and “B (the percentage is greater or equal to 70%)”.
`Cl.N#Cc1ccc(NC(=O)Nc2cccc3c2ccn3Cc2ccnc3[nH]ccc23)cc1` [Example 54, 1-(4-Cyanophenyl)-3-[1-(1H-pyrrolo[2,3-b]pyridin-4-ylmethyl)-1H-indol-4-yl]urea hydrochloride]: the remaining activity at 0.1 µM at PDGFRβ and on VEGFR2 was no less than 70% throughout. On c-Met, the “% c-Met kinase activity remains” value is given as “B (the percentage is greater or equal to 70%)”.
With `Cl.O=C(Nc1ccc(Cl)cc1F)Nc1cccc2c1ccn2Cc1ccnc2[nH]ccc12` [Example 55, 1-(2-Fluoro-4-chlorophenyl)-3-[1-(1H-pyrrolo[2,3-b]pyridin-4-ylmethyl)-1H-indol-4-yl]urea hydrochloride], the figures for the remaining activity at 0.1 µM at PDGFRβ and on VEGFR2 were no less than 70% and less than 70%, respectively. The “% c-Met kinase activity remains” value at c-Met is “B (the percentage is greater or equal to 70%)”.
